Key:
Olfr46 = Olfr46 (Mus musculus, UniProt Q2VPD7); test: Transpirol concentration-dependent activation of Olfr46: OR-dependent cAMP accumulation in a cell-based assay (functional dose-response); settings: agonist, mouse Olfr46 (SEQ ID NO: 75), N-terminal FLAG/Rho/Lucy tags, HEK 293T cells, Gαolf, FIG. 7
Text: (§1) The detection method pertains to OR-dependent accumulation of cAMP in said cells, as a result of OR activation by transpirol.
(§2) In a further embodiment, to complete the deorphanization process, the candidate OR genes are further expressed in vitro for confirmation of activity against the compounds used to isolate the olfactory sensory neurons and other structurally-related compounds of interest. […]
(§3) Neurons that were activated by DMTS were further isolated for full transcriptome analysis to identify the responsive odorant receptor. […] Amplified cDNA was then used to generate an Illumina cDNA library for Next-Generation-Sequencing and the generation of 100 base pair single read sequences. […]

Olfr263 = Olfr263 (Mus musculus, UniProt Q7TQT8); test: Concentration-dependent activation of Olfr263: OR-dependent cAMP accumulation in a cell-based assay (functional dose-response); settings: agonist transpirol, mouse Olfr263 (SEQ ID NO: 22), N-terminal FLAG/Rho/Lucy tags, HEK 293T cells, Gαolf, FIG. 7
Chain of Olfr263 (Q7TQT8 1-317): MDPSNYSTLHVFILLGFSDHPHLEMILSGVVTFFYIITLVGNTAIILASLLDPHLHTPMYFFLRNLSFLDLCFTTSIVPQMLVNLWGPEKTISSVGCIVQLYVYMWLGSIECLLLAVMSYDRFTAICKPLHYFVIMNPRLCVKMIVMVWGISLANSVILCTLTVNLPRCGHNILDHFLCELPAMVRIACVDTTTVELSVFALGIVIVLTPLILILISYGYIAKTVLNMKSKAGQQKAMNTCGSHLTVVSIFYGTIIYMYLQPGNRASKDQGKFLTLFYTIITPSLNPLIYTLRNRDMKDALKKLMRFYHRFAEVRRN
Text: as §1
(§4) The detection method pertains to OR-dependent accumulation of cAMP in said cells, as a result of OR activation by 3-methyl-2-hexenoic acid.
as §2, §3

OR2W1 = target: T1, OR2W1 (Homo sapiens, UniProt Q9Y3N9, M81V); test: Concentration-dependent activation of OR2W1: OR-dependent cAMP accumulation in a cell-based assay (functional dose-response); design: expressed in transfected cells; host or cells: HEK293T; settings: agonist transpirol, human OR2W1 (SEQ ID NO: 2), HEK293T cells expressing Golf, FIG. 7
T1 sequence (Q9Y3N9 1-320 M81V): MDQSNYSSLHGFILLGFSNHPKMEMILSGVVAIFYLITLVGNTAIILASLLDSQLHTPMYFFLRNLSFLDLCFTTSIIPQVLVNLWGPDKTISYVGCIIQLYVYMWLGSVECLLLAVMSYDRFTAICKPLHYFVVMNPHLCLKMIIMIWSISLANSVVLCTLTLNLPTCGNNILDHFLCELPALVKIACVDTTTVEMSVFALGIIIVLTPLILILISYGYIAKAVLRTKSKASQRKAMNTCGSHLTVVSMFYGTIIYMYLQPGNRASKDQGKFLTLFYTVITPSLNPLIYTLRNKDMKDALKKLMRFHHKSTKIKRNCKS
Text: as §1, §4, §2
(§5) In the second method, a panel of odorant receptors comprising the 400 putatively functional human receptor repertoire were transfected into a cultured human HEK293T cell line described in WO2014/210585 expressing Human olfactory G-protein alpha subunit (Golf—SEQ. ID No. 49) and coupled to a cyclicAMP reporter. Said panel of in vitro odorant receptors were exposed to MCSs and the level of cAMP signal was measured for each receptor. […]

Olfr96 = Olfr96 (Mus musculus, UniProt Q0VBG2); test: Geonol concentration-dependent activation of Olfr96: OR-dependent cAMP accumulation in a cell-based assay (functional dose-response); settings: agonist, mouse Olfr96 (SEQ ID NO: 28), N-terminal FLAG/Rho/Lucy tags, HEK 293T cells, Gαolf, FIG. 5
Chain of Olfr96 (Q0VBG2 1-313): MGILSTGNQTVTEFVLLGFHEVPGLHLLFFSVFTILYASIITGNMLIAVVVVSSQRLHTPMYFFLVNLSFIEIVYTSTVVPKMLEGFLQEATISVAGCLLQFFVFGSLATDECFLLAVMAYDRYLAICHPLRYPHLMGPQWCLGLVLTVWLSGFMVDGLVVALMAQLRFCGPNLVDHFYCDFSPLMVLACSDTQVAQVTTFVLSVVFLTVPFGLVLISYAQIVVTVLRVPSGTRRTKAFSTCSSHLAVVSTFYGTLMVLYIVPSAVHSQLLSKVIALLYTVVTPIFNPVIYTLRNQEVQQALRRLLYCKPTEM
Text: (§6) The detection method pertains to OR-dependent accumulation of cAMP in said cells, as a result of OR activation by geonol.
as §2, §3

Olfr1487 = Olfr1487 (Mus musculus, UniProt Q8VFQ6); test: Geonol concentration-dependent activation of Olfr1487: OR-dependent cAMP accumulation in a cell-based assay (functional dose-response); settings: agonist, mouse Olfr1487 (SEQ ID NO: 42), N-terminal FLAG/Rho/Lucy tags, HEK 293T cells, Gαolf, FIG. 5
Chain of Olfr1487 (Q8VFQ6 1-315): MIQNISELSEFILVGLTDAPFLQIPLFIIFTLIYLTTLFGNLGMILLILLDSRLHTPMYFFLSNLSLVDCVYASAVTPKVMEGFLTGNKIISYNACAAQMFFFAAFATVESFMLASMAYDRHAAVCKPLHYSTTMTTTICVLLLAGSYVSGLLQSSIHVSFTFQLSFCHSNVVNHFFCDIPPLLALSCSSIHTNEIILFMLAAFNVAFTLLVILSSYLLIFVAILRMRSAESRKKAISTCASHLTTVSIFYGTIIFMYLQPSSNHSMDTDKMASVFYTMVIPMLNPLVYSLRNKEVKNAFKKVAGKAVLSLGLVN
Text: as §6, §2, §3

Olfr339 = Olfr339 (Mus musculus, UniProt Q8VGK8); test: Geonol concentration-dependent activation of Olfr339: OR-dependent cAMP accumulation in a cell-based assay (functional dose-response); settings: agonist, mouse Olfr339 (SEQ ID NO: 44), N-terminal FLAG/Rho/Lucy tags, HEK 293T cells, Gαolf, FIG. 5
Chain of Olfr339 (Q8VGK8 1-309): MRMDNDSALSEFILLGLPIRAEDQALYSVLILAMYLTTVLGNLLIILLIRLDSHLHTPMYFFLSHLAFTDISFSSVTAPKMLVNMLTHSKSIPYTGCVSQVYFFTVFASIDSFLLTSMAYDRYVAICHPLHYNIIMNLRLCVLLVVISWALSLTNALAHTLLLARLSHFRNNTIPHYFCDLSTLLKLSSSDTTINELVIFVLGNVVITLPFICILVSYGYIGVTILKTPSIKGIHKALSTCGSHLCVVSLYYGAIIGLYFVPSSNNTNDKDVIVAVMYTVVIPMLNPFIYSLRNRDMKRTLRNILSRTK
Text: as §6, §2, §3

Olfr1322 = Olfr1322 (Mus musculus, UniProt Q7TQW3); test: Geonol concentration-dependent activation of Olfr1322: OR-dependent cAMP accumulation in a cell-based assay (functional dose-response); settings: agonist, mouse Olfr1322 (SEQ ID NO: 73), N-terminal FLAG/Rho/Lucy tags, HEK 293T cells, Gαolf, FIG. 5
Chain of Olfr1322 (Q7TQW3 1-310): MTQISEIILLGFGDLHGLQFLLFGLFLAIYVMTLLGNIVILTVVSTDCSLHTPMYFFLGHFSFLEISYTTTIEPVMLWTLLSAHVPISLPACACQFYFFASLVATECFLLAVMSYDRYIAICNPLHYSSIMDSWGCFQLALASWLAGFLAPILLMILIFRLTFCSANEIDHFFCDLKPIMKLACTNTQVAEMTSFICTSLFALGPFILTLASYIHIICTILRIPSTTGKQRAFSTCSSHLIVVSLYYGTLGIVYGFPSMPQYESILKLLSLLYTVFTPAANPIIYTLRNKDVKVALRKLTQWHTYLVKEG
Text: as §6, §2, §3

OR11A1 = OR11A1 (Homo sapiens, UniProt Q9GZK7); test: Geonol concentration-dependent activation of OR11A1: OR-dependent cAMP accumulation in a cell-based assay (functional dose-response); design: expressed in transfected cells; host or cells: HEK293T; settings: agonist, human OR11A1 (SEQ ID NO: 12), HEK293T cells expressing Golf, FIG. 5
Chain of OR11A1 (Q9GZK7 whole entry): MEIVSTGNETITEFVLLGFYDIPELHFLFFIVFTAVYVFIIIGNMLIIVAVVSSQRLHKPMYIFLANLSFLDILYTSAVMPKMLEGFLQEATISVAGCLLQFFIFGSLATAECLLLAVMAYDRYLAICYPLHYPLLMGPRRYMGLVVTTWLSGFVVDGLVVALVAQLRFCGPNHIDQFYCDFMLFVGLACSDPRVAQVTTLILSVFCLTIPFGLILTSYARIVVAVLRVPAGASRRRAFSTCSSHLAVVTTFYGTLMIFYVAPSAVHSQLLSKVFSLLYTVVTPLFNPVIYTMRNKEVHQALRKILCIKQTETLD
Text: as §6, §2, §5

Olfr120 = Olfr120 (Mus musculus, UniProt Q7TRJ4); test: 1-octen-3-ol concentration-dependent activation of Olfr120: OR-dependent cAMP accumulation in a cell-based assay (functional dose-response); settings: agonist, mouse Olfr120 (SEQ ID NO: 67), N-terminal FLAG/Rho/Lucy tags, HEK 293T cells, Gαolf, FIG. 6
Chain of Olfr120 (Q7TRJ4 1-321): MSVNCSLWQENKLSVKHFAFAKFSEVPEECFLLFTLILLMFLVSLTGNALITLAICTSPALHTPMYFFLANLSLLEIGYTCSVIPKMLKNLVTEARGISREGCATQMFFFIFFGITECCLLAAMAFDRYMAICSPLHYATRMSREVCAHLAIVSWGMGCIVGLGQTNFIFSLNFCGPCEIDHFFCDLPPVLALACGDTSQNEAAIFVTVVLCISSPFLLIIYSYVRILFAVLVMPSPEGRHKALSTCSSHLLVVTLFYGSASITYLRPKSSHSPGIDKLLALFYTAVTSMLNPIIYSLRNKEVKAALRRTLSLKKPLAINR
Text: (§7) The detection method pertains to OR-dependent accumulation of cAMP in said cells, as a result of OR activation by 1-octen-3-ol.
as §2, §3

Olfr398 = Olfr398 (Mus musculus, UniProt Q8VFY0); test: 1-octen-3-ol concentration-dependent activation of Olfr398: OR-dependent cAMP accumulation in a cell-based assay (functional dose-response); settings: agonist, mouse Olfr398 (SEQ ID NO: 65), N-terminal FLAG/Rho/Lucy tags, HEK 293T cells, Gαolf, FIG. 6
Chain of Olfr398 (Q8VFY0 1-314): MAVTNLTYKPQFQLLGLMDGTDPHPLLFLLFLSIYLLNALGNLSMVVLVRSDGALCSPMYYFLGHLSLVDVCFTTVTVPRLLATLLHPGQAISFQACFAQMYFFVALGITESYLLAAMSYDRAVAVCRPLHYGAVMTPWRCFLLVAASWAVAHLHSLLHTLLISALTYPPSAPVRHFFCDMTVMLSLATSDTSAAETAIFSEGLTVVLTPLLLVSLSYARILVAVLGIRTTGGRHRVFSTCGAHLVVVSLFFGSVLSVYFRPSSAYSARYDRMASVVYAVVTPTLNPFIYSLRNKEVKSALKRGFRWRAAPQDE

Olfr93 = Olfr93 (Mus musculus, UniProt B9EI77); test: 1-octen-3-ol concentration-dependent activation of Olfr93: OR-dependent cAMP accumulation in a cell-based assay (functional dose-response); settings: agonist, mouse Olfr93 (SEQ ID NO: 63), N-terminal FLAG/Rho/Lucy tags, HEK 293T cells, Gαolf, FIG. 6
Chain of Olfr93 (B9EI77 1-312): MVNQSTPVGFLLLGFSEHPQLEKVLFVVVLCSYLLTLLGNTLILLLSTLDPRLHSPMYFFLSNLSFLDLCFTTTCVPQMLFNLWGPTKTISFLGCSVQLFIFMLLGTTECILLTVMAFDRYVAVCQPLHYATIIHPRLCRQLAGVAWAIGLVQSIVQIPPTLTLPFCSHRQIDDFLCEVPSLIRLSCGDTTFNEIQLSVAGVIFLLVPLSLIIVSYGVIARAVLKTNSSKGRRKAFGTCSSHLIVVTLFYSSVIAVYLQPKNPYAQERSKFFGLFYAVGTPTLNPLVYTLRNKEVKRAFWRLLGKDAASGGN
Text: as §7, §2, §3

Olfr1364 = Olfr1364 (Mus musculus, UniProt Q5SZS9); test: 1-octen-3-ol concentration-dependent activation of Olfr1364: OR-dependent cAMP accumulation in a cell-based assay (functional dose-response); settings: agonist, mouse Olfr1364 (SEQ ID NO: 69), N-terminal FLAG/Rho/Lucy tags, HEK 293T cells, Gαolf, FIG. 6
Chain of Olfr1364 (Q5SZS9 9-314): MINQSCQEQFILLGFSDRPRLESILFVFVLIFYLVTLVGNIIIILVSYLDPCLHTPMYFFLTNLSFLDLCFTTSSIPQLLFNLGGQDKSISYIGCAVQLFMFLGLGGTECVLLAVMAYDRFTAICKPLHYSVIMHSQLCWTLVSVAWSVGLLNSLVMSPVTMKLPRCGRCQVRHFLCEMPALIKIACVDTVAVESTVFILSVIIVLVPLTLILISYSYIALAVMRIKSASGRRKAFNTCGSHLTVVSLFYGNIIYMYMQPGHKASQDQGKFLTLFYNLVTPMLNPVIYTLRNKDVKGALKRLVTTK
Text: as §7, §2, §3

Olfr1126 [1] = target: Olfr1126 (Mus musculus, UniProt Q7TR49); test: 3-hydroxy-3-methyl-hexanoic acid concentration-dependent activation of Olfr1126: OR-dependent cAMP accumulation in a cell-based assay (functional dose-response); settings: agonist, mouse Olfr1126 (SEQ ID NO: 46), N-terminal FLAG/Rho/Lucy tags, HEK 293T cells, Gαolf, FIG. 9
Chain of Olfr1126 (Mus musculus, UniProt Q7TR49) (Q7TR49 1-314): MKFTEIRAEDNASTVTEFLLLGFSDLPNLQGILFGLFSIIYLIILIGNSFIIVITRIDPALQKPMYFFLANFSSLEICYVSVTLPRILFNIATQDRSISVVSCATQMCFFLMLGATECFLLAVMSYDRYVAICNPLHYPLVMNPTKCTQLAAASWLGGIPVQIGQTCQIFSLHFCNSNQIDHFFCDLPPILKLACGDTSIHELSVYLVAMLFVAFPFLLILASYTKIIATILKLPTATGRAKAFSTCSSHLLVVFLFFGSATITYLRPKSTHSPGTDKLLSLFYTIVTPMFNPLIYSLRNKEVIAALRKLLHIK
Text: (§8) The detection method pertains to OR-dependent accumulation of cAMP in said cells, as a result of OR activation by 3-hydroxy-3-methyl-hexanoic acid.
as §2, §3

Olfr1126 [2] = test: Cell-based OR activation assay (cAMP accumulation); design: species or system mouse; settings: FIG. 9; OR-dependent accumulation of cAMP
Text: as §8
In a further embodiment, to complete the deorphanization process, the candidate OR genes are further expressed in vitro for confirmation of activity against the compounds used to isolate the olfactory sensory neurons and other structurally-related compounds of interest. The mouse receptors identified from isolated olfactory neurons that respond to geonol, DMTS, 1-octen-3-ol, butyric acid, 3-methyl-2-hexenoic acid, 3-hydroxy-3-methyl-hexanoic acid or transpirol are modified at their N-terminus with short polypeptide sequences (e.g., FLAG® (SEQ ID NO: 48), Rho (SEQ ID NO: 50; 20 first amino acids of the bovine rhodopsin receptor), and/or Lucy (SEQ ID NO: 52; cleavable leucine-rich signal peptide sequence) tags), transiently expressed in HEK 293T cells, and stimulated separately with geonol, DMTS, 1-octen-3-ol, butyric acid, 3-methyl-2-hexenoic acid, 3-hydroxy-3-methyl-hexanoic acid or transpirol to confirm their identity as bona fide geonol, dimethyl trisulfide (DMTS), 1-octen-3-ol, butyric acid, 3-methyl-2-hexenoic acid, 3-hydroxy-3-methyl-hexanoic acid or transpirol receptors. In a further embodiment, an RTP1 gene can also be expressed in the cell lines whether through activation of the endogenous RTP1 gene or through transformation. […]

Chain of Olfr46 (Q2VPD7 1-310): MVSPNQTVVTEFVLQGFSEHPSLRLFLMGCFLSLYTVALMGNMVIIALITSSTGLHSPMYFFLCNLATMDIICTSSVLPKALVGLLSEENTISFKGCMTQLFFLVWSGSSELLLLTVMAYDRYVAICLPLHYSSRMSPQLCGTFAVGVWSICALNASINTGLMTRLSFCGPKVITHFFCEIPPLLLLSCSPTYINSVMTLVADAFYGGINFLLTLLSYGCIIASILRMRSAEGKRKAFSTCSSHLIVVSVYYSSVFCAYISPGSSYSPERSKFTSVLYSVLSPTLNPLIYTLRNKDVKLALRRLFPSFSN

For `CCCC(C)(S)CCO` (centres unmarked) [Transpirol, 3-methyl-3-sulphanylhexanol], the EC50 (Olfr46) was 170 µM, the EC50 (Olfr263) was 2.3 µM and the EC50 (OR2W1) was 3.1 µM.

Compound `CC1CCCC2(C)CCCCC12O` [Geonol, (4S,4aS,8aR)-4,8a-Dimethyl-1,2,3,4,5,6,7,-octahydronaphthalen-4a-ol] has an EC50 (Olfr96) of 0.0168 µM, an EC50 (Olfr1487) of 3.58 µM and an EC50 (Olfr339) of 1.28 µM. For the same compound, the EC50 (Olfr1322) was 37.5 µM and the EC50 (OR11A1) was 2.8 µM.

With `C=CC(O)CCCCC` (centres unmarked) [1-Octen-3-ol, 1-octen-3-ol] the EC50 (Olfr120) was 26 µM, the EC50 (Olfr398) was 11.4 µM and the EC50 (Olfr93) was 0.69 µM. For the same compound, the EC50 (Olfr1364) was 113 µM.

`CCCC(C)(O)CC(=O)O` (centres unmarked) [3-hydroxy-3-methyl-hexanoic acid] was tested, and the EC50 (Olfr1126 [1]) was 40.3 µM and the “activation of Olfr1126” value (Olfr1126 [2]) was “concentration-dependent and specific activation”.
